Measured values as given in patent US20220095617A1, “PLANT GROWTH REGULATING AGENT” (IDEMITSU KOSAN CO.,LTD., priority 2019, published 2022).

How the values were obtained:
Assay type in all cases: in vivo
[1] = test system: Cucumber (Hanjirofushinari); assay: Example 13: Salt stress pot test (cucumber); conditions: foliar spraying 1 ppm (dilution of wettable powder formulation)
Experimental: Cucumber (Hanjirofushinari, Takii & Co., Ltd.) was sown on pots filled with seedling culture soil (manufactured by Katakura & Co-op Agri Corporation; Kumiai seedling culture soil for gardening Genkikun No. 1) (soil volume, 100 ml), and cultivated for 21 days. With a wettable powder formulation containing 1% hesperidin having the formulation composition shown in Table 11, a dilution was prepared such that the final concentration of hesperidin was 1 ppm. For each pot, 10 ml of the dilution was applied by foliar spraying. The cucumber was left to stand in a dilution whose final NaCl concentration was adjusted to 75 mM, and allowed to absorb water from the bottom. Cultivation was carried out in a greenhouse (20 to 25° C.) for 7 days, and then the fresh weight of the above-ground part was measured. For each group, six measurement results were obtained (N=6).

lettuce (Green Wave) [2] = assay: Example 9: High-temperature stress pot test (lettuce); conditions: for Fresh weight of above-ground part, Increase rate / Fresh weight of underground part, Increase rate: non-addition group = 100.0; for Fresh weight of above-ground part, Average / Fresh weight of underground part, Average: greenhouse 35° C., 20 days
Experimental: Immediately after the sowing, drenching treatment was carried out with 5 ml/well of a dilution of hesperidin prepared at a final concentration of 100 to 1000 ppm (using water as the solvent). A non-addition group was similarly subjected to drenching treatment using distilled water. High-temperature treatment was carried out by cultivation for 20 days in a greenhouse where the average daytime temperature was 35° C., and then the fresh weight of the above-ground part and the fresh weight of the underground part were evaluated. For each group, 15 to 20 measurement results were obtained (N=15 to 20).

Sphaerotheca cucurbitae = assay: Example 20: Control effect against cucumber powdery mildew; conditions: 14 days
Experimental: […] cucumber (Hanjirofushinari, Takii & Co., Ltd.) in the two leaf stage, and foliar spraying of 15 ml each of dilutions of hesperidin prepared at final concentrations of 10 to 1000 ppm (using 0.01% Tween 20 solution as the solvent) was carried out. After air-drying, foliar spraying of cucumber powdery mildew spores (1×10^4 spores/ml, using 0.01% Tween 20 solution as the solvent) was carried out. After air-drying, cultivation was carried out in a greenhouse for 14 days, and then the control effect was evaluated.
Preventive value=100−(damage in the addition group/damage in the non-addition group)×100 (Equation 3)

[3] = test system: Zoysia tenuifolia (Korean velvet grass); assay: Example 12: Low-temperature stress field test (lawn grass); conditions: for Number of sprouts, Average: three months after final spraying, low temperature; for Number of sprouts, Increase rate: non-addition group = 100.0
Experimental: In the research institute, a wettable powder formulation containing 1% hesperidin having the formulation composition shown in Table 11 was applied a total of four times by foliar spraying at a ratio of 0.15 to 0.75 g/m^2 (amount of water sprayed, 250 ml) every other week from late October to late December in 2017. Three months after the final spraying, the lawn grass was collected using a hole cutter, and the number of sprouts was measured. For each group, three measurement results were obtained (N=3).
In the period from November 2017 to March 2018, the highest temperature was 16.6° C.; the lowest temperature was −3.7° C.; and the average temperature was 6.0° C. Since the optimum growth temperature of Zoysia tenuifolia (Korean velvet grass) is 24 to 35° C., and it enters a period of dormancy at 10° C. or less, the plant was judged to have been affected by the low-temperature stress.

Rice (Koshihikari) seeds = assay: Example 5: High-temperature stress Petri dish test (rice seeds); conditions: for Germination rate, Increase rate: non-addition group = 100.0; for Germination rate, Average: seeds 65° C. hot water 10 minutes, 28° C. 5 days
Experimental: Rice (Koshihikari) seeds were soaked in hot water at 65° C. for 10 minutes to perform high-temperature treatment. […] A group similarly soaked in distilled water was provided as a non-addition group. After the soaking treatment, the seeds were dried in air, and then 20 seeds were sown on each of shallow Petri dishes in which qualitative filter paper was placed. To the filter paper in each Petri dish, 5 mL of distilled water was uniformly added dropwise. […] For each group, three measurement results were obtained (N=3).

lettuce (Green Wave) [4] = assay: Example 22: pH stress Petri dish test (lettuce); conditions: for Root length, Increase rate: non-addition group = 100.0
tomato (Momotaro Home) = assay: Example 24: Dry stress Petri dish test (tomato); conditions: Dry stress (20 g/L polyethylene glycol); for Root length, Average: 28° C., 12 days; for Root length, Increase rate: non-addition group = 100.0
Text: For each group, three measurement results were obtained (N=3).

Wheat (Satonosora) = assay: Example 15: Growth-promoting effect (wheat); conditions: for Increase/decrease of above-ground part / Increase/decrease of underground part: non-addition group = 100%; for Weight of above-ground part FW / Weight of underground part FW: 25° C., 14 days
Experimental: Wheat (Satonosora) was sown on pots filled with seedling culture soil (manufactured by Katakura & Co-op Agri Corporation; Kumiai seedling culture soil for gardening Genkikun No. 1) (soil volume, 100 ml). After […] of the germination, drenching treatment was carried out with 5 ml each of dilutions of hesperidin prepared at final concentrations of 10 to 33 ppm (using water as the solvent). […]

COc1ccc([C@@H]2CC(=O)c3c(O)cc(O[C@@H]4O[C@H](CO[C@@H]5O[C@@H](C)[C@H](O)[C@@H](O)[C@H]5O)[C@@H](O)[C@H](O)[C@H]4O)cc3O2)cc1O [Hesperidin]
Fresh weight of above-ground part ([1]; Normal cultivation): 4.2 g
Fresh weight of above-ground part ([1]; Salt treatment (75 mM NaCl, 7 days)): 3.6 g
Fresh weight of above-ground part, Increase rate (lettuce (Green Wave) [2]; 100 ppm): 114.4%
Fresh weight of underground part, Increase rate (lettuce (Green Wave) [2]; 100 ppm): 122.8%
Fresh weight of above-ground part, Increase rate (lettuce (Green Wave) [2]; 1000 ppm): 109.1%
Fresh weight of underground part, Increase rate (lettuce (Green Wave) [2]; 1000 ppm): 93.9%
Fresh weight of above-ground part, Average (lettuce (Green Wave) [2]; drenching 100 ppm): 0.76 g
Fresh weight of underground part, Average (lettuce (Green Wave) [2]; drenching 100 ppm): 0.29 g
Fresh weight of above-ground part, Average (lettuce (Green Wave) [2]; drenching 1000 ppm): 0.72 g
Fresh weight of underground part, Average (lettuce (Green Wave) [2]; drenching 1000 ppm): 0.22 g
Preventive value (Sphaerotheca cucurbitae; 10 ppm foliar spraying on cucumber): 5.0
Preventive value (Sphaerotheca cucurbitae; 100 ppm foliar spraying on cucumber): 50.0
Preventive value (Sphaerotheca cucurbitae; 1,000 ppm foliar spraying on cucumber): 68
Number of sprouts, Average ([3]; 0.15 g/m^2, foliar spraying four times as wettable powder formulation containing 1% hesperidin): 111.33 number
Number of sprouts, Increase rate ([3]; 0.15 g/m^2): 189.8%
Number of sprouts, Average ([3]; 0.75 g/m^2, foliar spraying four times as wettable powder formulation containing 1% hesperidin): 112.00 number
Number of sprouts, Increase rate ([3]; 0.75 g/m^2): 190.9%
Germination rate, Increase rate (Rice (Koshihikari) seeds; 1 ppm): 131.5%
Germination rate, Increase rate (Rice (Koshihikari) seeds; 10 ppm): 146.6%
Germination rate, Increase rate (Rice (Koshihikari) seeds; 100 ppm): 134.0%
Germination rate, Average (Rice (Koshihikari) seeds; then soaked 1 hour at 1 ppm): 77.3%
Germination rate, Average (Rice (Koshihikari) seeds; then soaked 1 hour at 10 ppm): 86.2%
Germination rate, Average (Rice (Koshihikari) seeds; then soaked 1 hour at 100 ppm): 78.8%
Root length, Average (lettuce (Green Wave) [4]; Acid stress (pH 4), 0.1 ppm): 17.69 mm
Root length, Increase rate (lettuce (Green Wave) [4]; Acid stress (pH 4), 0.1 ppm): 121.9%
Root length, Average (lettuce (Green Wave) [4]; Acid stress (pH 4), 1 ppm): 18.03 mm
Root length, Increase rate (lettuce (Green Wave) [4]; Acid stress (pH 4), 1 ppm): 124.3%
Root length, Average (lettuce (Green Wave) [4]; Alkali stress (pH 9), 0.1 ppm): 17.55 mm
Root length, Increase rate (lettuce (Green Wave) [4]; Alkali stress (pH 9), 0.1 ppm): 114.1%
Root length, Average (lettuce (Green Wave) [4]; Alkali stress (pH 9), 1 ppm): 17.40 mm
Root length, Increase rate (lettuce (Green Wave) [4]; Alkali stress (pH 9), 1 ppm): 113.1%
Root length, Average (tomato (Momotaro Home); 0.1 ppm): 49.89 mm
Root length, Increase rate (tomato (Momotaro Home); 0.1 ppm): 214.2%
Root length, Average (tomato (Momotaro Home); 1 ppm): 55.81 mm
Root length, Increase rate (tomato (Momotaro Home); 1 ppm): 239.6%
Increase/decrease of above-ground part (Wheat (Satonosora); 10 ppm): 123%
Increase/decrease of underground part (Wheat (Satonosora); 10 ppm): 107%
Increase/decrease of above-ground part (Wheat (Satonosora); 33 ppm): 116%
Increase/decrease of underground part (Wheat (Satonosora); 33 ppm): 104%
Weight of above-ground part FW (Wheat (Satonosora); drenching 10 ppm): 364.9 mg/individual
Weight of underground part FW (Wheat (Satonosora); drenching 10 ppm): 391.6 mg/individual
Weight of above-ground part FW (Wheat (Satonosora); drenching 33 ppm): 345.4 mg/individual
Weight of underground part FW (Wheat (Satonosora); drenching 33 ppm): 382.6 mg/individual
